From US20210057047A1, “IN-SILICO METHOD FOR DESIGNING A (D)-POLYPEPTIDE LIGAND” (THE GOVERNING COUNCIL OF THE UNIVERSITY OF TORONTO, priority 2018, published 2021)
Square brackets hold non-standard residues; d marks the D form. Peptide text beside a SMILES is read from it.

How the values were obtained:
GLP2R = target: T1, GLP2R (Homo sapiens, UniProt O95838); test: CRE-luciferase reporter assay in HEK293 cells stably expressing GLP2R; type: cell-based
T1 construct: expressed in transfected cells; host or cells: HEK293
T1 sequence (O95838 1-553): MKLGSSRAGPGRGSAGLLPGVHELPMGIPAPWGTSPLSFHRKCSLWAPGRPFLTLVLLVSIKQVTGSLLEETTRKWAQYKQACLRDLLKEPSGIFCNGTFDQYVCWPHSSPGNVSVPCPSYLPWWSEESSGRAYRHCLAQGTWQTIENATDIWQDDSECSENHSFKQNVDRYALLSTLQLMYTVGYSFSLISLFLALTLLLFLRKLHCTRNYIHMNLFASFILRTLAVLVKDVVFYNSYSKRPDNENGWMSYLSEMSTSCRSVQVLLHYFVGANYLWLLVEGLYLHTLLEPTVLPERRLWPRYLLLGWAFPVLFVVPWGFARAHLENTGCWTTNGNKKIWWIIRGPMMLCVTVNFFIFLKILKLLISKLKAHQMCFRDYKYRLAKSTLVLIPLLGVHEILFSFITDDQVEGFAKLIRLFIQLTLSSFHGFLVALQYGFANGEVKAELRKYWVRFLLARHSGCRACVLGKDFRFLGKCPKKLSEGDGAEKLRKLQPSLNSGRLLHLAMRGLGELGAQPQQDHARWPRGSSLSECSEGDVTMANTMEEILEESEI
Protocol: This activates protein kinase A (PKA) to phosphorylate and activate cAMP response element-binding protein (CREB). […] All of the (L)-GLP-2 is degraded in about 1 hr, while more than 90% of the (D)-analog is still detectable at 6 hours.
FIG. 14 is a series of charts and experiments showing the activity and protease degradation of (L)- and (D)-GLP2 polypeptides. (A) HEK293 cells stably expressing GLP2R and CRE-luciferase were stimulated with different concentrations of (L)- and (D)-GLP2 peptides. Luciferase activity was measured. The experiments were performed in triplicate. (B) Sample gel images of (L) and (D)-GLP-2 peptides treated with Proteinase K (ProtK) over 5 hours. Gels were stained with Coomassie Brilliant Blue dye and band densitometry calculated using ImageJ (40) with background subtraction. (C) Quantification of remaining peptide post ProtK treatment in 60 min intervals. Intensities of peptide bands were normalized to the intensity of the untreated peptide (T0) and converted to a percentage relative to T0. […] Error bars are reporting standard error. Data represent the average of 3 independent experiments.

in vitro = in vitro ADME; settings: isolated enzyme proteinase k, pH 7.4
Protocol: (§1) Stocks of 20 μM peptide in 200 μL total volume (10 mM Tris-base, 10 mM NaCl, pH 7.4) were supplemented with 5 μM CaCl2) and 30 uL removed for the untreated T0 sample. Proteinase K (ProtK, Bioshop) was then added to a final concentration of 100 μg/mL. Samples were incubated at 37° C. and 30 μL removed after each time point and protease activity blocked by the addition of 10 mM PMSF (200 mM stock dissolved in isopropanol). Protease inactivated samples were frozen at −20° C. until further use. Digestions were repeated three times. Frozen samples were supplemented with 8 μL sample loading buffer (4× NuPAGE, ThermoFisher Scientific), boiled ([…]) for 10 minutes, and centrifuged (12 000 rpm, 10 min) prior to loading the gel (12% NuPAGE Bis-Tris (ThermoFisher Scientific) with MES running buffer). Gels were run at 200 V for […] and stained using Coomassie Brilliant Blue dye. Densitometry of bands was determined using ImageJ software (40) with back ground subtraction. All samples were normalized to their respective untreated sample (T0).

Proteinase K (ProtK) = target: T2, Proteinase K (ProtK) (Parengyodontium album, UniProt P06873); test: in vitro; type: in vitro ADME
T2 construct: purchased Bioshop
Protocol: as §1

RLN receptor (RXFP1) = target: T3, RLN receptor (RXFP1) (Homo sapiens, UniProt Q9HBX9); test: CRE-luciferase reporter assay in HEK293 cells stably expressing RXFP1; type: cell-based
T3 construct: expressed in transfected cells; host or cells: HEK293
T3 sequence (Q9HBX9 1-757): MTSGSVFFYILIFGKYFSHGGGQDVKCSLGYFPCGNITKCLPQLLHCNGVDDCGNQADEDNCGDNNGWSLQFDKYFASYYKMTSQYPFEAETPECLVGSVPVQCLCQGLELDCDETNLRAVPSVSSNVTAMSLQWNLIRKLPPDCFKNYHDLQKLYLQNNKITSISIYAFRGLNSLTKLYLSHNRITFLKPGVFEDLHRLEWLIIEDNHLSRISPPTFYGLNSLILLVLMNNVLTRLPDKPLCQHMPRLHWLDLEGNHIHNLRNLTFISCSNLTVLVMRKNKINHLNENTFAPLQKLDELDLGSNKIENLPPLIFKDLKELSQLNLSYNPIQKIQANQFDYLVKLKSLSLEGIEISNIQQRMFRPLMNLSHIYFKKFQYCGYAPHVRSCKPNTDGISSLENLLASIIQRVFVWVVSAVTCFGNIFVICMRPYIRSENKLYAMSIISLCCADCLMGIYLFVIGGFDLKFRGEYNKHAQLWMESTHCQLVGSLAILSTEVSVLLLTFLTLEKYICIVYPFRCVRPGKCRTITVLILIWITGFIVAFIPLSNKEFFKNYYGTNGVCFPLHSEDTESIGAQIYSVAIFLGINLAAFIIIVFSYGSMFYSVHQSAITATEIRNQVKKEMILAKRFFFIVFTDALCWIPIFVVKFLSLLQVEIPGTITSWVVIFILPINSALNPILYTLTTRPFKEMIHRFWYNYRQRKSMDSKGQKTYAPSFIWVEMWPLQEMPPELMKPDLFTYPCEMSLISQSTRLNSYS
Protocol: This activates protein kinase A (PKA) to phosphorylate and activate cAMP response element-binding protein (CREB). […] All of the (L)-RLN was degraded in about 1 hr, while about 90% of the (D)-analog was still detectable at 6 hours.
FIG. 15 is a series of charts and experiments showing the activity and protease degradation of (D)-RLN_1 (non-mutated) and (D)-RLN_2 (mutated) polypeptides. (A) HEK293 cells stably expressing RXFP1 and CRE-luciferase were stimulated with different concentrations of (D)-RLN_1 and (D)-RLN_2 peptides. Luciferase activity was measured. The experiments were performed in triplicate. (B) Sample gel images of (L) and (D)-RLN peptides treated with Proteinase K (ProtK) over 5 hours. Gels were stained with Coomassie Brilliant Blue dye and band densitometry calculated using ImageJ (40) with background subtraction. (C) Quantification of remaining peptide post ProtK treatment in 60 min intervals. Intensities of peptide bands were normalized to the intensity of the untreated peptide (T0) and converted to a percentage relative to T0. […] Error bars are reporting standard error. Data represent the average of 3 independent experiments.

T2 sequence (P06873 106-384): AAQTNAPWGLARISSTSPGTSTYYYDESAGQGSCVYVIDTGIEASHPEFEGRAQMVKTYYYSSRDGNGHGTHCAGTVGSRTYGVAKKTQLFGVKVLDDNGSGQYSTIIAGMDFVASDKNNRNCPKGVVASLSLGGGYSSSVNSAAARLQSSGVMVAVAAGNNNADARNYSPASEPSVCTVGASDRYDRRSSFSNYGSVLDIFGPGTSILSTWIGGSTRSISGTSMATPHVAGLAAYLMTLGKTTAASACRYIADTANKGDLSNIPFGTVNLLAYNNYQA

remaining at 6 h, 20 µM (in vitro) | Structure (SMILES) | activation of GLP2R, potency and efficacy (in words) (GLP2R) | degradation by ProtK (in words) (Proteinase K (ProtK)) | activation of RLN receptor, potency and efficacy (in words) (RLN receptor (RXFP1)) | remaining at 6 h, 20 µM (Proteinase K (ProtK); isolated enzyme proteinase k, pH 7.4, after 6 hours exposure to ProtK, relative to T0, read-out: peptide still detectable)
> 90% | CC[C@@H](C)[C@@H](NC(=O)[C@@H](C)NC(=O)[C@@H](C)NC(=O)[C@H](NC(=O)[C@@H](C)NC(=O)[C@@H](Cc1ccccc1)NC(=O)[C@@H](Cc1c[nH]c2ccccc12)NC(=O)[C@@H](Cc1ccccc1)NC(=O)CNC(=O)[C@H](NC(=O)[C@@H](CCCNC(=N)N)NC(=O)[C@@H](CC(=O)O)NC(=O)[C@H](NC(=O)[C@@H](CCCCN)NC(=O)[C@H](NC(=O)[C@H](NC(=O)[C@H](N)CC(=O)O)[C@H](C)O)[C@H](C)CC)[C@H](C)O)[C@H](C)CC)C(C)C)C(=O)N[C@H](CC(C)C)C(=O)N[C@@H](C(=O)N[C@H](CC(C)C)C(=O)N[C@H](CC(C)C)C(=O)N[C@H](CCCCN)C(=O)N[C@H](CCSC)C(=O)N[C@H](CCSC)C(=O)N[C@H](CCC(=O)O)C(=O)N[C@H](CCC(=O)O)C(=O)N[C@H](Cc1ccccc1)C(=O)N[C@@H](C(=O)NCC(=O)N[C@H](CC(=O)O)C(=O)N[C@H](C)C(=O)N[C@H](Cc1c[nH]cn1)C(=O)O)C(C)C)C(C)C [(D)-GLP2] (H-[dD][dT][dI][dK][dT][dD][dR][dI]G[dF][dW][dF][dA][dV][dA][dA][dI][dL][dV][dL][dL][dK][dM][dM][dE][dE][dF][dV]G[dD][dA][dH]-OH; N-terminus and C-terminus assumed) | potency and efficacy comparable to (L)-GLP-2 | persists after 5 hours |  | 
 | CC[C@@H](C)[C@@H](NC(=O)[C@@H](CC(C)C)NC(=O)[C@@H](CC(C)C)NC(=O)[C@@H](CCC(=O)O)NC(=O)[C@@H](CCCCN)NC(=O)[C@@H](CO)NC(=O)[C@H](NC(=O)[C@@H](Cc1c[nH]c2ccccc12)NC(=O)[C@H](N)CO)[C@H](C)O)C(=O)N[C@H](CCC(=O)O)C(=O)N[C@@H](C(=O)N[C@@H](C(=O)N[C@H](CC(N)=O)C(=O)N[C@H](CC(=O)O)C(=O)N[C@H](CC(C)C)C(=O)N[C@H](CCC(N)=O)C(=O)N[C@H](CCCCN)C(=O)N[C@H](CCCNC(=N)N)C(=O)NCC(=O)N[C@H](CS)C(=O)N[C@H](CC(C)C)C(=O)N[C@H](CCCCN)C(=O)N[C@@H](C(=O)N[C@@H](C(=O)N[C@H](CCC(=O)O)C(=O)N[C@H](CCC(=O)O)C(=O)N[C@H](CCSC)C(=O)N[C@H](Cc1c[nH]c2ccccc12)C(=O)N[C@H](CO)C(=O)O)C(C)C)[C@H](C)CC)[C@H](C)CC)[C@H](C)CC [(D)-RLN] (H-[dS][dW][dT][dS][dK][dE][dL][dL][dI][dE][dI][dI][dN][dD][dL][dQ][dK][dR]G[dC][dL][dK][dI][dV][dE][dE][dM][dW][dS]-OH; N-terminus and C-terminus assumed) |  | persists after 5 hours | potency and efficacy comparable to (L)-RLN | ~90%
